# A melting point compilation (Tetko et al.)
row,SMILES,melting point [°C]
1,CCCCCCCCCCCCC(Oc1ccc([N+](=O)[O-])cc1)C(=O)NN (centres undefined),127
2,COc1cc2c(cc1O)CCNC2C (centres undefined),222
3,Cc1cc(C(=O)Cl)nn1C,73 to 74
4,CC1CC2C3CC(F)C4=CC(=O)C=CC4(C)C3C(O)CC2(C)C1C(=O)CO (centres undefined),188
5,CCCCC(CC)COC(=O)C=CC(=O)OCC(CC)CCCC (centres undefined),-10
6,CC(=O)C=CC(=O)O,124
7,O=C(NC(=O)c1c(F)cccc1F)Nc1cc(Cl)c(F)c(Cl)c1F,225
8,C1COC1,-97
9,NCc1ccc(Cl)nc1,30
10,O=C(O)/C(=C/c1ccccc1)Cc1ccccc1,157 to 158
11,CCOC(=O)c1sc(N)nc1C,177 to 178
12,O=C1Nc2c(C(=O)O)cccc2C1=O,268 to 275
13,CC(=O)c1ccc(C=O)s1,105 to 106
14,COc1ccc2c(c1)CCC1C2CCC2(C)C(=O)C(Cl)CC12 (centres undefined),180
15,O=C1NCCSC1c1ccccc1 (centres undefined),158 to 162
16,O=C(O)C(F)(F)C(F)(F)C(F)(F)C(F)(F)C(F)(F)C(F)(F)C(F)(F)C(F)(F)C(F)(F)C(F)(F)C(F)(F)F,112 to 114
17,CCCCCCCCCCCCCCC(C)C,4
18,OCC12CC3CC(CC(C3)C1)C2,140
19,COc1cc(N=C=O)cc(OC)c1OC,40
20,CNC(=O)Oc1cccc2ccccc12,142
21,C[C@]12CC[C@@H](O)[C@H](O)[C@@H]1CC[C@@H]1[C@@H]2CC[C@]2(C)C(=O)CC[C@@H]12,233
22,Cc1ccc(OP(=O)(Oc2ccc(C)c(C)c2)Oc2ccc(C)c(C)c2)cc1C,72
23,NC(=S)N1CCOCC1,153 to 156
24,CC1=CCCC1C (centres undefined),-118
25,COC(=O)c1ccc(CCl)cc1,40
26,COC(=O)c1cc(Br)c(Br)s1,79
27,CC(C)C1=C(O)C(=O)C2=C(C=CC3C(C)(C)CCCC23C)C1=O (centres undefined),167
28,CCCCCCCCCCCCCCCC1CCCCC1,29

row,SMILES,melting point [°C]
1,O=C(O)C1=CC(Cl)=C(Cl)[C@H](O)[C@@H]1O,195 to 200
2,c1cn[nH]c1,68
3,Cc1nnc(SCC2=C(C(=O)O)N3C(=O)C(NC(=O)Cn4cnnn4)C3SC2)s1 (centres undefined),198
4,COC(=O)c1ccc([N+](=O)[O-])c(OC)c1,85
5,O=S1(=O)CCOCC1,132
6,Cc1cnc(CO)c(C)c1[N+](=O)[O-],67
7,COc1ccc([N+](=O)[O-])cc1,54
8,CCOC(=O)c1sc2sc(C#N)c(C)c2c1C,155 to 157
9,CN(C)C(=N)N(C)C,-30
10,OCc1ccc(OC2CCOCC2)cc1,81.5 to 82.5
11,C1C2CC3CC1CC(C2)C3,267
12,COC(=O)c1c(O)cc(O)cc1O,177
13,Cn1c(N)cc(=O)[nH]c1=O,300
14,Clc1cccc(O[Si]23OCCN(CCO2)CCO3)c1,245
15,Cc1ccc(S(=O)(=O)N2CCCN(S(=O)(=O)c3ccc(C)cc3)CCN(S(=O)(=O)c3ccc(C)cc3)CCC2)cc1,238
16,O=Cc1cc(Br)cc2c1OCC2,94 to 95
17,CC(C)(C)NCCO,44
18,NS(=O)(=O)c1ccc(SCCCCO)s1,48.5
19,CC1C=C(CO)N=N1 (centres undefined),79
20,CCN(CCO)CCO,-50
21,Nc1cnn(-c2ccccc2)c(=O)c1Cl,206
22,CCCCCCCCCCCCC1CCCCC1,12.5
23,NNC(=O)c1cccs1,139
24,CC(OC1C(N)C(O)OC(CO)C1O)C(=O)O (centres undefined),148
25,COC1OC(COC(=O)C(C)(C)C)C(O)C(OC(=O)C(C)(C)C)C1O (centres undefined),89.8
26,COc1cc2c(c(O)c1OC)C(C)N(C)CC2 (centres undefined),112
27,O=C(O)c1scc2c1OCCO2,205 to 206

# Other lines, results leading:
row,melting point [°C],SMILES
1,73 to 74,Brc1cccc(-c2cc[nH]n2)c1
2,88 to 89,Cc1cc(C(=O)CCl)c(C)n1-c1ccc(Cl)cc1
3,178 to 181,COc1ccc(C(C=O)C=O)cc1
4,65 to 69,Clc1ccc(Br)nc1
5,239,CC12CCC3C(=CCc4cc(O)ccc43)C1CCC2=O (centres undefined)
6,62,CCOC(=O)c1cnc(SC)nc1Cl
7,250,Cc1cc(C(F)(F)F)n2nc(N)c(/N=N/c3ccc(Cl)cc3)c2n1
8,106 to 108,CCOC(=O)CC1Sc2ccccc2NC1=S (centres undefined)
9,157,Clc1ccc(Cl)c(-c2nnn[nH]2)c1
10,69 to 72,CCOC(=O)c1cc2cc(Br)ccc2o1
11,160,Cc1nc2ccccc2[nH]c(=O)c1=NNc1cc(-c2ccccc2)n[nH]1
12,192,O=C1OCCOC(=O)c2ccccc2C(=O)OCCOC(=O)c2ccccc21
13,133,CCOC(=O)Oc1c(-c2ccccc2)n(C(C)=O)c2cc([N+](=O)[O-])ccc12
14,223 to 225,Cn1nc(N)c2c(=O)c(C(=O)O)c[nH]c21
15,242,O=C(Nc1ccc(Br)cc1)c1cc(Br)ccc1O
16,158,CS(=O)(=O)c1nc(Br)c(C#N)c(-c2ccc(Cl)cc2)c1Cl
17,119 to 120,Cc1noc(N)c1C
18,78 to 82,OCc1cc(OCc2ccccc2)cc(OCc2ccccc2)c1
19,98 to 99,Nc1ccccc1N1CCOCC1
20,310,CC(=O)c1c(O)nc2cc3nc(O)c(C(C)=O)c(C)c3cc2c1C
21,-12,CCCCCC(c1ccccc1)c1ccccc1
22,209 to 211,COc1ccc(-c2nnc3n2NC(c2ccc([N+](=O)[O-])cc2)S3)cc1 (centres undefined)
23,62,CC(C)(C)c1ccc(OC(=O)c2ccccc2O)cc1
24,90,Nc1ncccc1I
25,222,FC(F)(F)c1nn2c(=S)nc(-c3ccccc3)nc2s1

row,melting point [°C],SMILES
1,66 to 67,OCc1ccc2nonc2c1
2,162 to 163,NC(=O)c1cccnc1Oc1ccccc1
3,189,Cc1[nH]c2ccc([N+](=O)[O-])cc2c1C
4,128,Cc1ccc(-c2onc(C(=O)c3cccs3)c2S(=O)(=O)c2ccccc2)cc1
5,171,Oc1ccnc(Cl)c1
6,239 to 240,COc1ccccc1-c1nnc2n1CN(c1ccccc1C)CS2
7,176,CC1=C(C(=O)OCCC(C)C)C(c2ccco2)NC(=O)N1 (centres undefined)
8,174 to 175,Cc1[nH]c2cc(C(F)(F)F)ccc2c1C(=O)N1CCCCC1
9,155,Cc1cccc(NN=C2C(=O)NN=C2C(F)(F)F)c1
10,193 to 197,O=C(O)c1cc(F)c(Cl)c([N+](=O)[O-])c1Cl
11,84 to 85,O=S(=O)(Cl)c1ccc2c(c1)CCO2
12,95 to 98,O=C1CCCN1c1ccc(Cl)cc1
13,50,C=CCOC1(C#Cc2ccccc2)Cc2ccccc21 (centres undefined)
14,129,CCCCCc1ccc(NC(=O)c2ccc(C)cc2)cc1
15,160 to 162,NC(=O)c1cc(Cl)cc(Cl)c1
16,174,c1cc2c3c(c4ccc5ccccc5c4cc3c1)CC2
17,218,N#CC1=C(N)Oc2c(c(C(F)(F)F)nn2-c2ccccc2)C1c1ccc(O)cc1 (centres undefined)
18,156,CC(C)=CCC1C(=O)N(c2ccccc2)N(c2ccccc2)C1=O
19,148 to 149,CC(=O)Nc1c(F)ccc([N+](=O)[O-])c1F
20,133,COc1ccc(NC(=S)c2ccccc2)cc1
21,209 to 211,NC(=O)c1cccnc1Sc1ccc(Cl)cc1
22,144,O=C1c2ccccc2C(=O)N1CO
23,170,N#Cc1ccc(S(N)(=O)=O)cc1
24,92 to 93,Cc1ccc(C#N)c(N)c1
25,196,Oc1cc(OCc2ccccc2)ccn1

row,melting point [°C],SMILES
1,210 to 215,Nc1ccc(C(=O)O)c(Cl)c1
2,30,CCOC(=O)Cc1ccc(Br)cc1
3,64,N#Cc1ccc(F)cc1Cl
4,213,O=C(C1=NOC2C(=O)N(c3ccc(O)cc3)C(=O)C12)c1ccc([N+](=O)[O-])cc1 (centres undefined)
5,224,Cc1c(O)ccc(O)c1C
6,161,O=C(Nc1ccccc1)C1Cc2ccccc21 (centres undefined)
7,250,COC(=O)Nc1nc2cc(C(=O)C3CC3)ccc2[nH]1
8,98,Cc1cc(C)c2c(c1C)CC2=O
9,189,CCOC(=O)C1=C(C)OC(N)=C(c2nc3ccccc3s2)C1c1ccc(Cl)cc1 (centres undefined)
10,174,[O-][P+](c1ccccc1)(c1ccccc1)C1C=C(c2ccccc2)C=C(c2ccccc2)S1 (centres undefined)
11,171 to 175,c1ccc([C@@H]2COC(c3cccc(C4=N[C@H](c5ccccc5)CO4)n3)=N2)cc1
12,191,O=C(O)C=CC(=O)Nc1ccc(F)cc1F
13,95 to 97,OCc1ncoc1-c1ccccc1
14,23,Oc1ccc(F)cc1Cl
15,199 to 202,O=[N+]([O-])c1ccc(S(=O)(=O)OCc2cccc(OS(=O)(=O)c3ccc([N+](=O)[O-])cc3)c2)cc1
16,30.5,CCOC(=O)c1cc2ccccc2o1
17,210 to 211,Cc1ccccc1/C=C(\C#N)c1nc2ccccc2[nH]1
18,91 to 92,O=C(Nc1cccnc1Cl)c1ccccc1
19,71,COc1cc(Cl)ccc1[N+](=O)[O-]
20,85,O=Cc1ccc(N2CCCC2)cc1
21,251 to 252,CCOC(=O)C(C#N)=C(N)c1cc2cccc(OC)c2oc1=O
22,150 to 152,CCOC(=O)c1c(NC(=O)Nc2ccccc2)sc2c1CCCC2
23,39,Cc1c(N)cccc1C(F)(F)F
24,62 to 70,Brc1cccc(Cn2ccnc2)c1
